Structures can show the parent of a compound that is named as a salt.
Tests used:
Assay type in all cases: cell-based
[1] = tested on: Klebsiella pneumoniae XNWB 0001; assay: MIC assay of test compounds combined with imipenem (4 μg/mL); settings: imipenem 4 μg/mL fixed
In short: (§1)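 MIC determined by CLSI-guided broth microdilution in CAMHB after 16-20 h at 35±2 °C, with growth and sterile control wells. Test compound series co-dosed with fixed-level ceftazidime or imipenem; inoculum from TSA-grown colonies, adjusted to OD600 0.1-0.15 then diluted 300-fold.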

[2] = tested on: Klebsiella pneumoniae XNWB 0003; assay: as above; settings: imipenem 4 μg/mL fixed
In short: as §1

[3] = tested on: Pseudomonas aeruginosa XNWB 0008; assay: as above; settings: imipenem 4 μg/mL fixed
In short: as §1

[4] = tested on: Klebsiella pneumoniae XNWB 0006; assay: as above; settings: imipenem 4 μg/mL fixed
In short: as §1

[5] = tested on: Acinetobacter baumannii XNWB 0007; assay: as above; settings: imipenem 4 μg/mL fixed
In short: as §1

[6] = tested on: Klebsiella pneumoniae XNWB 0002; assay: as above; settings: imipenem 4 μg/mL fixed
In short: as §1

[7] = tested on: Klebsiella pneumoniae XNWB 0005; assay: as above; settings: imipenem 4 μg/mL fixed
In short: as §1

[8] = tested on: Klebsiella pneumoniae XNWB 0004; assay: as above; settings: imipenem 4 μg/mL fixed
In short: as §1

[9] = tested on: Klebsiella pneumoniae XNWB 0001; assay: MIC assay of test compounds combined with ceftazidime (8 μg/mL); settings: ceftazidime 8 μg/mL fixed
In short: as §1

[10] = tested on: Klebsiella pneumoniae XNWB 0003; assay: as above; settings: ceftazidime 8 μg/mL fixed
In short: as §1

[11] = tested on: Pseudomonas aeruginosa XNWB 0008; assay: as above; settings: ceftazidime 8 μg/mL fixed
In short: as §1

[12] = tested on: Klebsiella pneumoniae XNWB 0006; assay: as above; settings: ceftazidime 8 μg/mL fixed
In short: as §1

[13] = tested on: Acinetobacter baumannii XNWB 0007; assay: as above; settings: ceftazidime 8 μg/mL fixed
In short: as §1

[14] = tested on: Klebsiella pneumoniae XNWB 0002; assay: as above; settings: ceftazidime 8 μg/mL fixed
In short: as §1

[15] = tested on: Klebsiella pneumoniae XNWB 0005; assay: as above; settings: ceftazidime 8 μg/mL fixed
In short: as §1

[16] = tested on: Klebsiella pneumoniae XNWB 0004; assay: as above; settings: ceftazidime 8 μg/mL fixed
In short: as §1

Compound	The minimum concentration of test compounds combined with imipenem (4 μg/mL) for bacteriostasis [1]	The minimum concentration of test compounds combined with imipenem (4 μg/mL) for bacteriostasis [2]	The minimum concentration of test compounds combined with imipenem (4 μg/mL) for bacteriostasis [3]	The minimum concentration of test compounds combined with imipenem (4 μg/mL) for bacteriostasis [4]	The minimum concentration of test compounds combined with imipenem (4 μg/mL) for bacteriostasis [5]	The minimum concentration of test compounds combined with imipenem (4 μg/mL) for bacteriostasis [6]	The minimum concentration of test compounds combined with imipenem (4 μg/mL) for bacteriostasis [7]	The minimum concentration of test compounds combined with imipenem (4 μg/mL) for bacteriostasis [8]	The minimum concentration of test compounds combined with ceftazidime (8 μg/mL) for bacteriostasis [9]	The minimum concentration of test compounds combined with ceftazidime (8 μg/mL) for bacteriostasis [10]	The minimum concentration of test compounds combined with ceftazidime (8 μg/mL) for bacteriostasis [11]	The minimum concentration of test compounds combined with ceftazidime (8 μg/mL) for bacteriostasis [12]	The minimum concentration of test compounds combined with ceftazidime (8 μg/mL) for bacteriostasis [13]	The minimum concentration of test compounds combined with ceftazidime (8 μg/mL) for bacteriostasis [14]	The minimum concentration of test compounds combined with ceftazidime (8 μg/mL) for bacteriostasis [15]	The minimum concentration of test compounds combined with ceftazidime (8 μg/mL) for bacteriostasis [16]
O=C(NC1CCNCC1)[C@@H]1CC2(CC2)[C@@H]2CN1C(=O)N2OS(=O)(=O)O [Example 27, (1R,4S)-6-oxo-4-(piperidin-4-ylaminoformyl)-5,7-diazaspiro[bicyclo[3.2.1]octane-2,1′-cyclopropan]-7-yl sulfate]	A (A: <8 μg/mL)	A (A: <8 μg/mL)	A (A: <8 μg/mL)	A (A: <8 μg/mL)	C (C: 16-128 μg/mL)	A (A: <8 μg/mL)	A (A: <8 μg/mL)	A (A: <8 μg/mL)	A (A: <8 μg/mL)	B (B: 8-16 μg/mL)	A (A: <8 μg/mL)	A (A: <8 μg/mL)	C (C: 16-128 μg/mL)	A (A: <8 μg/mL)	A (A: <8 μg/mL)	B (B: 8-16 μg/mL)
O=C(NC1CCNC1)[C@@H]1CC2(CC2)[C@@H]2CN1C(=O)N2OS(=O)(=O)O (stereo partly drawn) [Example 28, (1R,4S)-6-oxo-4-(pyrrolidin-3-ylaminoformyl)-5,7-diazaspiro[bicyclo[3.2.1]octane-2,1′-cyclopropan]-7-yl sulfate]	A (A: <8 μg/mL)	A (A: <8 μg/mL)	A (A: <8 μg/mL)	A (A: <8 μg/mL)	C (C: 16-128 μg/mL)	A (A: <8 μg/mL)	A (A: <8 μg/mL)	A (A: <8 μg/mL)	A (A: <8 μg/mL)	A (A: <8 μg/mL)	A (A: <8 μg/mL)	A (A: <8 μg/mL)	C (C: 16-128 μg/mL)	A (A: <8 μg/mL)	A (A: <8 μg/mL)	B (B: 8-16 μg/mL)
O=C(NC1CNC1)[C@@H]1CC2(CC2)[C@@H]2CN1C(=O)N2OS(=O)(=O)O [Example 29, (1R,4S)-4-(azetidin-3-ylaminoformyl)-6-oxo-5,7-diazaspiro[bicyclo[3.2.1]octane-2,1′-cyclopropan]-7-yl sulfate]	A (A: <8 μg/mL)	A (A: <8 μg/mL)	A (A: <8 μg/mL)	A (A: <8 μg/mL)	C (C: 16-128 μg/mL)	A (A: <8 μg/mL)	A (A: <8 μg/mL)	A (A: <8 μg/mL)	A (A: <8 μg/mL)	A (A: <8 μg/mL)	B (B: 8-16 μg/mL)	A (A: <8 μg/mL)	C (C: 16-128 μg/mL)	A (A: <8 μg/mL)	A (A: <8 μg/mL)	A (A: <8 μg/mL)
CNCCNC[C@H](O)c1nnc([C@@H]2CC3(CC3)[C@@H]3CN2C(=O)N3OS(=O)(=O)O)o1 [Example 30, (1R,4S)-4-(5-((S)-1-hydroxy-2-((2-(methylamino)ethyl)amino)ethyl)-1,3,4-oxadiazol-2-yl)-6-oxo-5,7-diazaspiro[bicyclo[3.2.1]octane-2,1′-cyclopropan]-7-yl sulfate]	A (A: <8 μg/mL)	A (A: <8 μg/mL)	C (C: 16-128 μg/mL)	A (A: <8 μg/mL)	B (B: 8-16 μg/mL)	A (A: <8 μg/mL)	A (A: <8 μg/mL)	A (A: <8 μg/mL)	B (B: 8-16 μg/mL)	A (A: <8 μg/mL)	C (C: 16-128 μg/mL)	A (A: <8 μg/mL)	C (C: 16-128 μg/mL)	A (A: <8 μg/mL)	B (B: 8-16 μg/mL)	B (B: 8-16 μg/mL)
NCCNC[C@H](O)c1nnc([C@@H]2CC3(CC3)[C@@H]3CN2C(=O)N3OS(=O)(=O)O)o1 [Example 31, (1R,4S)-4-(5-((S)-2-((2-aminoethyl)amino)-1-hydroxyethyl)-1,3,4-oxadiazol-2-yl)-6-oxo-5,7-diazaspiro[bicyclo[3.2.1]octane-2,1′-cyclopropan]-7-yl sulfate]	A (A: <8 μg/mL)	A (A: <8 μg/mL)	B (B: 8-16 μg/mL)	A (A: <8 μg/mL)	B (B: 8-16 μg/mL)	A (A: <8 μg/mL)	A (A: <8 μg/mL)	A (A: <8 μg/mL)	A (A: <8 μg/mL)	A (A: <8 μg/mL)	C (C: 16-128 μg/mL)	A (A: <8 μg/mL)	C (C: 16-128 μg/mL)	A (A: <8 μg/mL)	A (A: <8 μg/mL)	B (B: 8-16 μg/mL)
CNCc1cc([C@@H]2CC3(CC3)[C@@H]3CN2C(=O)N3OS(=O)(=O)O)no1 [Example 32]	A (A: <8 μg/mL)	A (A: <8 μg/mL)	C (C: 16-128 μg/mL)	A (A: <8 μg/mL)	C (C: 16-128 μg/mL)	A (A: <8 μg/mL)	A (A: <8 μg/mL)	A (A: <8 μg/mL)	B (B: 8-16 μg/mL)	B (B: 8-16 μg/mL)	C (C: 16-128 μg/mL)	B (B: 8-16 μg/mL)	C (C: 16-128 μg/mL)	A (A: <8 μg/mL)	C (C: 16-128 μg/mL)	C (C: 16-128 μg/mL)
